The record followed here is patent publication US6110933A, “Amino acid derivatives and their use as phospholipase A2 inhibitor” (Fujisawa Pharmaceutical Co., Ltd., priority 1994, dated 2000).

Assay [1] has as its system PLA2 group I. The assay is described as follows: Test on the inhibitory effect against phospholipase A2 (PLA2). The following applies: 83 ng/ml; PLA2 group I from porcine pancreas; preincubated with enzyme at 37° C. for 30 minutes; 5 μM [14C]phosphatidylcholine, pH 7.4. The assay is classed as biochemical. The procedure:
Test on the inhibitory effect against phospholipase A2 (PLA2)
The substrate, [^14 C]phosphatidylcholine (L-3-phosphatidylcholine, 1-stearyl-2-[1-^14 C]arachidonyl, was dried under N2 gas and suspended in deionized water with a probe sonicater. The standard reaction mixture in a total volume of 800 μl contained Tris-HCl buffer (10 mM, pH 7.4), CaCl2 (5 mM) and 10 ng/ml enzyme, PLA2 group I (from porcine pancreas, 700 units/mg, Boehringer Mannheim Yamanouchi Co., Ltd.). The reaction was started by addition of 5 μM [^14 C]phosphatidylcholine (L-3-phosphatidylcholine, 1-stearyl-2-[1-^14 C]arachidonyl to the enzyme solution. Following incubation at 37° C. for 30 minutes, the reaction was terminated by addition of 2 ml of Dole's reagent^1). To determine the release of ^14 C-arachidonic acid from the phospholipid substrate, free fatty acid was extracted by the method of Natori et al^2), and counted in 8 ml of Liquifluor (Du Pont, New England Nuclear). On the inhibition assay, inhibitor or vehicle was preincubated with enzyme at 37° C. for 30 minutes. Each sample was dissolved in methanol (1.25% final). All data are the average of at least duplicate determinations corrected for none enzymatic hydrolysis. Data were expressed as percent inhibition.

Assay [2] concerns PLA2 group II. The assay is described as follows: Inhibition of PLA2 group II. The assay is classed as biochemical. The following applies: no concentration or figure given.

`CCCCCCCCCCCCC[C@@H](CC(N)=O)OC(=O)[C@H](CCCC(=O)O)NC(=O)c1ccc(OC)cc1` [Example 9, (3S)-3-[(2S)-5-Carboxy-2-(p-methoxybenzoylamino)-pentanoyl]oxyhexadecanamide]: in assay [1], the Percent inhibition is 87.1%. Moreover, in assay [2], the “inhibition of PLA2 group II” value was “inhibited”.
